Test results taken from patent US20250215039A1, “NUCLEOSIDES FOR TREATING CANCER” (PRIMEFOUR THERAPEUTICS, INC., priority 2022, published 2025).
Read-outs that look alike come from different tables or passages of the source.

Test system: cancer cell lines
Test: Cancer cell proliferation activity (CellTiterGlo, 72 h)
Format: cell-based
Conditions: 72 h, 72 h, read-out: IC50
Description: Dose response relationships on cell proliferation was assessed for representative Compounds of the Disclosure on cancer cell lines. Briefly, compound treatment of cells started one day after seeding with a final DMSO concentration of 0.1%, and was performed by nanodrop-dispensing using a Tecan Dispenser. 0.1% DMSO (solvent) and Staurosporine (10 μM) served as high control (100% viability) and low control (0% viability), respectively.
Cells were cultured in the appropriate media. For the assays, cells were seeded in white cell culture-treated flat and clear bottom multiwell plates and incubated at 37° C. overnight before compound was added. After incubation for 72 h at 37° C. at 5% or 10% CO2 dependent on the medium, cell plates were equilibrated to room temperature for one hour, CellTiterGlo reagent (Promega) was added and luminescence was measured approximately an hour later using a luminometer.
Raw data were converted into percent cell viability relative to the high and low control, which were set to 100% and 0%, respectively.
The IC50 values are summarized in Tables 9A-1, Table 10A, and Table 10B.

## CC[C@]1(CO)O[C@@H](n2cnc3c(N)nc(F)nc32)C[C@@H]1O [Cpd. No. 1, (2R,3S,5R)-5-(6-amino-2-fluoro-9H-purin-9-yl)-2-ethyl-2-(hydroxymethyl)tetrahydrofuran-3-ol]
5637 cell line (bladder)
  IC50: 880 nM
CLS439 cell line (bladder)
  IC50: > 50000 nM
HS729 cell line (muscle)
  IC50: 1240 nM
JAR cell line (placenta)
  IC50: 440 nM
U20S cell line, bone
  IC50: 840 nM
Homo sapiens, 22Rv1, 72 h, 22RV1 cell line (prostate)
  IC50: 1860 nM
Homo sapiens, 786-0, 72 h, 786O cell line (kidney)
  IC50: 620 nM
Homo sapiens, A204, 72 h, A204 cell line (muscle)
  IC50: 550 nM
Homo sapiens, A549, 72 h, A549 cell line, lung
  IC50: > 50000 nM
Homo sapiens, A673, 72 h, A673 cell line (bone)
  IC50: 2560 nM
Homo sapiens, A2780, 72 h, A2780 cell line (ovary)
  IC50: 910 nM
Homo sapiens, A-375, 72 h, A375 cell line (skin)
  IC50: 530 nM
Homo sapiens, A-431, 72 h, A431 cell line (skin)
  IC50: 530 nM
Homo sapiens, ACHN, ACHN cell line (kidney)
  IC50: > 50000 nM
Homo sapiens, ASPC1, 72 h, ASPC1 cell line (pancreas)
  IC50: 470 nM
Homo sapiens, BT-20, 72 h, BT20 cell line (breast)
  IC50: 550 nM
Homo sapiens, C-33-A, C33A cell line, endometrial
  IC50: 950 nM
Homo sapiens, CAKI-1, 72 h, CAKI1 cell line (kidney)
  IC50: 60 nM
Homo sapiens, COLO 205, 72 h, COLO205 cell line (colon)
  IC50: 1060 nM
Homo sapiens, COLO-678, 72 h, COLO678 cell line (colon)
  IC50: > 50000 nM
Homo sapiens, Ca-Ski, CASKI cell line, endometrial
  IC50: 310 nM
Homo sapiens, Caco-2, 72 h, CACO2 cell line (colon)
  IC50: 1040 nM
Homo sapiens, Calu-6, 72 h, CALU6 cell line (lung)
  IC50: 650 nM
Homo sapiens, DLD-1, 72 h, DLD1 cell line (colon)
  IC50: 2070 nM
Homo sapiens, DU-145, 72 h, DU145 cell line (prostate)
  IC50: 190 nM
Homo sapiens, EFO-21, 72 h, EFO21 cell line (ovary)
  IC50: 520 nM
Homo sapiens, EJ-28, 72 h, EJ28 cell line (bladder)
  IC50: 490 nM
Homo sapiens, Granta-519, 72 h, GRANTA-519 cell line (hematological)
  IC50: > 50000 nM
Homo sapiens, HCT-15, 72 h, HCT15 cell line (colon)
  IC50: 2780 nM
Homo sapiens, HCT-116, 72 h, HCT116 cell line (colon)
  IC50: 820 nM
Homo sapiens, HEK293, 72 h, HEK293 cell line (kidney)
  IC50: 710 nM
Homo sapiens, HL-60, 72 h, HL-60 cell line (hematological)
  IC50: 830 nM
Homo sapiens, HT-29, 72 h, HT29 cell line (colon)
  IC50: 530 nM
Homo sapiens, HT-1080, 72 h, HT1080 cell line (connective tissue)
  IC50: > 50000 nM
Homo sapiens, HeLa, HELA cell line, endometrial
  IC50: 1070 nM
Homo sapiens, HepG2, 72 h, HEPG2 cell line (liver)
  IC50: 670 nM
Homo sapiens, Hs-578T, HS578T cell line, breast
  IC50: 850 nM
Homo sapiens, IGROV-1, 72 h, IGROV1 cell line (ovary)
  IC50: 380 nM
Homo sapiens, IMR-90, 72 h, IMR90 cell line, lung
  IC50: 640 nM
Homo sapiens, J82, 72 h, J82 cell line (bladder)
  IC50: 540 nM
Homo sapiens, JEG-3, 72 h, JEG3 cell line (placenta)
  IC50: 670 nM
Homo sapiens, JIMT-1, 72 h, JIMT1 cell line (breast)
  IC50: 160 nM
Homo sapiens, K562, 72 h, K-562 cell line (hematological)
  IC50: > 50000 nM
Homo sapiens, Kasumi 1, 72 h, KASUMI-1 cell line (hematological)
  IC50: 150 nM
Homo sapiens, L-363, 72 h, L-363 cell line (hematological)
  IC50: 570 nM
Homo sapiens, LoVo, LOVO cell line (colon)
  IC50: 290 nM
Homo sapiens, MCF7, 72 h, MCF7 cell line (breast)
  IC50: > 50000 nM
Homo sapiens, MDA-MB-231, 72 h, MDAMB231 cell line (breast)
  IC50: > 50000 nM
Homo sapiens, MDA-MB-435, 72 h, MDAMB435 cell line (skin)
  IC50: 1720 nM
Homo sapiens, MDA-MB-436, 72 h, MDAMB436 cell line (breast)
  IC50: 370 nM
Homo sapiens, MDA-MB-468, 72 h, MDAMB468 cell line (breast)
  IC50: 690 nM
Homo sapiens, MG-63, 72 h, MG63 cell line (bone)
  IC50: > 50000 nM
Homo sapiens, MHH-ES-1, 72 h, MHHES1 cell line (bone)
  IC50: 600 nM
Homo sapiens, MIA PaCa-2, 72 h, MIAPACA2 cell line (pancreas)
  IC50: > 50000 nM
Homo sapiens, MINO, MINO cell line (hematological)
  IC50: 250 nM
Homo sapiens, MV4-11, 72 h, MV4-11 cell line (hematological)
  IC50: 170 nM
Homo sapiens, NCI-H23, 72 h, NCI-H23 cell line (lung)
  IC50: 830 nM
Homo sapiens, NCI-H82, 72 h, NCIH82 cell line (lung)
  IC50: 610 nM
Homo sapiens, NCI-H292, 72 h, NCIH292 cell line (lung)
  IC50: > 50000 nM
Homo sapiens, NCI-H460, 72 h, NCIH460 cell line (lung)
  IC50: 970 nM
Homo sapiens, OVCAR-3, 72 h, OVCAR3 cell line (ovary)
  IC50: 260 nM
Homo sapiens, OVCAR-4, 72 h, OVCAR4 cell line (ovary)
  IC50: 960 nM
Homo sapiens, PANC-1, 72 h, PANC1 cell line (pancreas)
  IC50: > 50000 nM
Homo sapiens, PC-3, 72 h, PC3 cell line (prostate)
  IC50: 870 nM
Homo sapiens, PLC-PRF-5, 72 h, PLCPRF5 cell line (liver)
  IC50: 3200 nM
Homo sapiens, Panc1005, 72 h, PANC1005 cell line (pancreas)
  IC50: 440 nM
Homo sapiens, RD, RD cell line (muscle)
  IC50: 1460 nM
Homo sapiens, Ramos, RAMOS cell line (hematological)
  IC50: 940 nM
Homo sapiens, SAOS-2, 72 h, SAOS2 cell line (bone)
  IC50: 640 nM
Homo sapiens, SF-268, 72 h, SF268 cell line (brain)
  IC50: > 50000 nM
Homo sapiens, SF-295, 72 h, SF295 cell line (brain)
  IC50: 1420 nM
Homo sapiens, SK-BR-3, 72 h, SKBR3 cell line (breast)
  IC50: 150 nM
Homo sapiens, SK-HEP1, 72 h, SKHEP1 cell line (liver)
  IC50: > 50000 nM
Homo sapiens, SK-LMS-1, 72 h, SKLMS1 cell line (uterus)
  IC50: 470 nM
Homo sapiens, SK-MEL-5, 72 h, SKMEL5 cell line, skin
  IC50: > 50000 nM
Homo sapiens, SK-MEL-28, 72 h, SKMEL28 cell line (skin)
  IC50: 1260 nM
Homo sapiens, SK-N-AS, SKNAS cell line (brain)
  IC50: 1140 nM
Homo sapiens, SK-N-SH, SKNSH cell line (brain)
  IC50: 750 nM
Homo sapiens, SK-OV-3, 72 h, SKOV3 cell line (ovary)
  IC50: 760 nM
Homo sapiens, SNB-75, 72 h, SNB75 cell line (brain)
  IC50: 2370 nM
Homo sapiens, SU-DHL10, 72 h, SU-DHL-10 cell line (hematological)
  IC50: 120 nM
Homo sapiens, SU-DHL-6, 72 h, SU-DHL-6 cell line (hematological)
  IC50: 430 nM
Homo sapiens, SW-620, 72 h, SW620 cell line (colon)
  IC50: 730 nM
Homo sapiens, T-24, 72 h, T24 cell line (bladder)
  IC50: 1460 nM
Homo sapiens, TE-671, 72 h, TE671 cell line (muscle)
  IC50: 4780 nM
Homo sapiens, THP-1, 72 h, THP-1 cell line (hematological)
  IC50: > 50000 nM
Homo sapiens, U-87 MG, U87MG cell line (brain)
  IC50: > 50000 nM
Homo sapiens, UMUC3, 72 h, UMUC3 cell line (bladder)
  IC50: > 50000 nM
Homo sapiens, UO-31, 72 h, UO31 cell line (kidney)
  IC50: 630 nM
Homo sapiens, WSU-NHL, WSU-NHL cell line (hematological)
  IC50: 720 nM
MT-3, 72 h, MT3 cell line (breast)
  IC50: 510 nM
NCI-H358M, NCIH358M cell line (lung)
  IC50: 560 nM
PBMC, PBMC (hematological)
  IC50: 310 nM
RD-ES, RDES cell line (bone)
  IC50: 410 nM
